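The compound was tested at five concentrations on cells cultured in 96-well plates, with a 48-hour exposure period. GI50: concentration for 50% inhibition of growth.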 Active and inactive are the calls of the source. Cut-off read from the data, not from the text of the source: active = GI50 up to about 1.1 µM and inactive = higher.
What was measured:
Experiment in all cases: inhibition of tumour cell growth, NCI panel, 48 h
[1] = system: ACHN
[2] = system: CAKI-1
[3] = system: HCC 2998
[4] = system: HCT-116
[5] = system: HOP-62
[6] = system: K562
[7] = system: KM12
[8] = system: M14
[9] = system: MDA-N
[10] = system: MOLT-4
[11] = system: NCI-H522
[12] = system: PC-3
[13] = system: RPMI-8226
[14] = system: SF-295
[15] = system: SF-539
[16] = system: SK-MEL-28
[17] = system: SK-OV-3
[18] = system: SN12C
[19] = system: SNB-75

Row | Compound | GI50 [1] | GI50 [2] | GI50 [3] | GI50 [4] | GI50 [5] | GI50 [6] | GI50 [7] | GI50 [8] | GI50 [9] | GI50 [10] | GI50 [11] | GI50 [12] | GI50 [13] | GI50 [14] | GI50 [15] | GI50 [16] | GI50 [17] | GI50 [18] | GI50 [19]
1 | CC(C)c1ccc(/C=C2\CSCC3=C2N=C(S)NC3c2ccc(C(C)C)cc2)cc1 (stereo not drawn) | > 100 µM (inactive) | > 100 µM (inactive) | 67.6 µM (inactive) | 44.9 µM (inactive) | > 100 µM (inactive) | 34.8 µM (inactive) | > 100 µM (inactive) | > 100 µM (inactive) | > 100 µM (inactive) | 29.6 µM (inactive) | 53.6 µM (inactive) | 28.9 µM (inactive) | 67.6 µM (inactive) | 75.9 µM (inactive) | > 100 µM (inactive) | > 100 µM (inactive) | > 100 µM (inactive) | > 100 µM (inactive) | 
2 | C/C(CC(O)(/C=N/O)c1ccccc1)=N/O (stereo not drawn) | > 100 µM (inactive) | > 100 µM (inactive) | > 100 µM (inactive) | > 100 µM (inactive) | > 100 µM (inactive) | > 100 µM (inactive) | > 100 µM (inactive) | > 100 µM (inactive) | > 100 µM (inactive) | > 100 µM (inactive) | > 100 µM (inactive) | > 100 µM (inactive) | > 100 µM (inactive) | > 100 µM (inactive) | > 100 µM (inactive) | > 100 µM (inactive) | > 100 µM (inactive) | > 100 µM (inactive) | 
3 | Cn1/c(=N\N=C(\CNCCO)[C@@H](O)[C@@H]2OC(c3ccccc3)OC[C@H]2O)sc2ccccc21 (stereo partly drawn) | 19.9 µM (inactive) | 15.6 µM (inactive) | 11.3 µM (inactive) | 16 µM (inactive) | 17.8 µM (inactive) | 14.8 µM (inactive) | 17.1 µM (inactive) | 13.2 µM (inactive) | 17.6 µM (inactive) | 14.9 µM (inactive) | 17.6 µM (inactive) | 16.6 µM (inactive) |  | 18.7 µM (inactive) | 17.5 µM (inactive) | 17.3 µM (inactive) | 18.4 µM (inactive) | 17.9 µM (inactive) | 16 µM (inactive)
4 | COc1ccc(NC(=O)C(=O)Cc2nc3ccc(C(=O)c4ccccc4)cc3nc2O)c([N+](=O)[O-])c1 | 43.6 µM (inactive) | 14.9 µM (inactive) | 29.8 µM (inactive) | 28.1 µM (inactive) | 34.6 µM (inactive) |  | 6.93 µM (inactive) | 35.6 µM (inactive) | 23.4 µM (inactive) | 17.6 µM (inactive) | 12.8 µM (inactive) | 18.5 µM (inactive) |  | 31.8 µM (inactive) | 33 µM (inactive) | 25.8 µM (inactive) | 52 µM (inactive) | 35.7 µM (inactive) | 17.7 µM (inactive)
5 | COc1ccc2c(c1)CC[C@@H]1C2CC[C@]2(C)C(=O)N(C)C(=O)CC12 (stereo partly drawn) | > 100 µM (inactive) | > 100 µM (inactive) | > 100 µM (inactive) | > 100 µM (inactive) | 38.9 µM (inactive) | > 100 µM (inactive) | > 100 µM (inactive) | > 100 µM (inactive) | > 100 µM (inactive) | > 100 µM (inactive) | > 100 µM (inactive) | > 100 µM (inactive) |  | 62.7 µM (inactive) | > 100 µM (inactive) | > 100 µM (inactive) | > 100 µM (inactive) | > 100 µM (inactive) | 52.5 µM (inactive)
6 | CC1(C)N=C2C(=O)c3c([nH]c4ccccc34)[C@]3(C)CCC1CC23 (stereo partly drawn) | > 6.25 µM (inactive) | > 6.25 µM (inactive) | > 6.25 µM (inactive) | > 6.25 µM (inactive) | > 6.25 µM (inactive) | > 6.25 µM (inactive) | > 6.25 µM (inactive) |  | > 6.25 µM (inactive) | > 6.25 µM (inactive) | > 6.25 µM (inactive) | > 6.25 µM (inactive) | > 6.25 µM (inactive) | > 6.25 µM (inactive) | > 6.25 µM (inactive) | > 6.25 µM (inactive) |  | > 6.25 µM (inactive) | > 6.25 µM (inactive)
7 | C=C(C)[C@@]1(O)CCC[C@H]1NC(=O)OC(C)(C)C | > 100 µM (inactive) | > 100 µM (inactive) | > 100 µM (inactive) | > 100 µM (inactive) | > 100 µM (inactive) |  | > 100 µM (inactive) | > 100 µM (inactive) | > 100 µM (inactive) |  | > 100 µM (inactive) | > 100 µM (inactive) |  | > 100 µM (inactive) |  | > 100 µM (inactive) | > 100 µM (inactive) | > 100 µM (inactive) | > 100 µM (inactive)
8 | O=C1C(O)=C(Cl)C(=O)c2c(O)ccc(O)c21 |  | > 100 µM (inactive) | > 100 µM (inactive) | > 100 µM (inactive) | > 100 µM (inactive) | > 100 µM (inactive) | > 100 µM (inactive) | > 100 µM (inactive) | > 100 µM (inactive) | 10 µM (inactive) |  | > 100 µM (inactive) | > 100 µM (inactive) | > 100 µM (inactive) | > 100 µM (inactive) | > 100 µM (inactive) |  |  | > 100 µM (inactive)
9 | COc1ccc(C2(O)c3ccccc3C(=O)N(C)C2(O)c2ccc(OC)cc2)cc1 (stereo not drawn) |  | 57.1 µM (inactive) | 49.3 µM (inactive) | 37.8 µM (inactive) | 70.8 µM (inactive) | 55.8 µM (inactive) | 16.4 µM (inactive) | 53.3 µM (inactive) | 17.7 µM (inactive) | 24.7 µM (inactive) | 16.1 µM (inactive) | 33.9 µM (inactive) | > 100 µM (inactive) | 32.9 µM (inactive) | > 100 µM (inactive) | 25.6 µM (inactive) | > 100 µM (inactive) | > 100 µM (inactive) | 
10 | Cc1ccc2ccccc2c1CC1S(=O)(=O)OCCOS1(=O)=O | 14.4 µM (inactive) | 12.1 µM (inactive) | 4.15 µM (inactive) | 13.1 µM (inactive) | 12.6 µM (inactive) | 9.12 µM (inactive) | 12.1 µM (inactive) | 12.9 µM (inactive) | 9.48 µM (inactive) | 6.28 µM (inactive) |  | 11.2 µM (inactive) | 11.4 µM (inactive) | 13.1 µM (inactive) |  | 16 µM (inactive) |  | 10.1 µM (inactive) | 
11 | C=CCC1(O)c2cccc(O)c2C(=O)c2c(O)cccc21 | 32.5 µM (inactive) | 31.2 µM (inactive) | 17.5 µM (inactive) | 23.1 µM (inactive) | 80.2 µM (inactive) | 21 µM (inactive) | 24.4 µM (inactive) | 20.8 µM (inactive) | 9.93 µM (inactive) | 29.3 µM (inactive) | 23.8 µM (inactive) | 26 µM (inactive) | 31.7 µM (inactive) | 27.1 µM (inactive) | 57.8 µM (inactive) | 31.7 µM (inactive) |  |  | 21.1 µM (inactive)
12 | Fc1ccccc1-c1cc(S)c2cc3c(cc2n1)OCO3 | 38 µM (inactive) | 9.93 µM (inactive) | 5.53 µM (inactive) | 7.08 µM (inactive) | > 70.5 µM (inactive) | 13.1 µM (inactive) | 4.91 µM (inactive) | 6.61 µM (inactive) | 3.03 µM (inactive) | 9.62 µM (inactive) | 13.8 µM (inactive) | 6.08 µM (inactive) |  | 7.91 µM (inactive) | 7.18 µM (inactive) | 27.9 µM (inactive) | 16.1 µM (inactive) | 34.2 µM (inactive) | 
13 | CC(=O)c1c(C)cn(S(=O)(=O)NC(=O)Nc2nncs2)c1C | > 100 µM (inactive) | > 100 µM (inactive) | > 100 µM (inactive) | > 100 µM (inactive) | > 100 µM (inactive) | > 100 µM (inactive) | > 100 µM (inactive) | > 100 µM (inactive) | > 100 µM (inactive) | > 100 µM (inactive) | > 100 µM (inactive) | > 100 µM (inactive) | > 100 µM (inactive) | > 100 µM (inactive) |  | > 100 µM (inactive) | > 100 µM (inactive) | > 100 µM (inactive) | > 100 µM (inactive)
14 | O=C1NC(NNc2ccccc2)=N/C1=C\c1ccco1 | 13.2 µM (inactive) | 14.3 µM (inactive) | 17.6 µM (inactive) | 14.3 µM (inactive) | 33.9 µM (inactive) |  | 11.2 µM (inactive) | 8.47 µM (inactive) | 26.9 µM (inactive) | 30.1 µM (inactive) | 12.9 µM (inactive) | 19.3 µM (inactive) | 16.3 µM (inactive) | 39.5 µM (inactive) |  | 25.4 µM (inactive) | > 100 µM (inactive) | 22.1 µM (inactive) | 24.7 µM (inactive)
15 | COc1ccc(NC(=S)N/N=C(\c2ccccc2)c2ccccn2)cc1 | < 0.027 µM (active) | 0.034 µM (active) | 2.42 µM (inactive) | < 0.01 µM (active) | 0.06 µM (active) | < 0.01 µM (active) | 0.0479 µM (active) | 0.0117 µM (active) | 0.263 µM (active) | < 0.01 µM (active) | 0.0552 µM (active) | < 0.01 µM (active) | < 0.01 µM (active) | 0.121 µM (active) | 0.348 µM (active) | 2.56 µM (inactive) | 0.028 µM (active) | 0.052 µM (active) | 
16 | C[C@]12CC[C@H](O)CC1=CC[C@@H]1C2CC[C@]2(C)c3n[nH]nc3CC12 (stereo partly drawn) | > 100 µM (inactive) | > 100 µM (inactive) | > 100 µM (inactive) | > 100 µM (inactive) | > 100 µM (inactive) | 39.8 µM (inactive) | > 100 µM (inactive) | > 100 µM (inactive) | 36.3 µM (inactive) | > 100 µM (inactive) | > 100 µM (inactive) | > 100 µM (inactive) |  | > 100 µM (inactive) | > 100 µM (inactive) | > 100 µM (inactive) | > 100 µM (inactive) | > 100 µM (inactive) | 82 µM (inactive)

From ChEMBL document CHEMBL1201862, “PubChem BioAssay data set” (2004)
